Measured values taken from patent US11446298B2, “Pyrimidine derivatives” (Idorsia Pharmaceuticals Ltd, priority 2017, dated 2022).

Tests used:
Assay type in all cases: cell-based
PTGER2 (EP2) = target: T1, PTGER2 (EP2) (Homo sapiens, UniProt P43116); test: hEP2 b-Arrestin Assay (PathHunter HEK 293 PTGER2 b-arrestin cells, PGE2 5 μM); conditions: antagonistic activity, beta-arrestin assay, HEK 293 PTGER2 cells, PGE2 5 μM (EC80); read-out: hEP2 b-arr IC50
T1 construct: host or cells: HEK 293 (PathHunter, stably transfected)
T1 sequence (P43116 whole entry): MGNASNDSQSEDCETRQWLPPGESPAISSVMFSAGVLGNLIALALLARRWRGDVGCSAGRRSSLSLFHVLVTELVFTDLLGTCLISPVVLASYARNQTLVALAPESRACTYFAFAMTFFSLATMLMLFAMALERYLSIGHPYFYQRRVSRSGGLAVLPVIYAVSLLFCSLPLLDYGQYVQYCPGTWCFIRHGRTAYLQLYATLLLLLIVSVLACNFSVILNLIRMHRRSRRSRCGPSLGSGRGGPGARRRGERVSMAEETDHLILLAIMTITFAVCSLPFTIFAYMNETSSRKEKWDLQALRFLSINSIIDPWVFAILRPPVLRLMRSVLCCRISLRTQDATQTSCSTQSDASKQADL
Procedure, shortened: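 PathHunter enzyme-fragment complementation in HEK 293 cells: compounds (10 μM-2 nM or 1 μM-0.2 nM) pre-incubated 15 min at 37 °C, then 5 μM PGE2 (EC80) for 120 min at 37 °C. Chemiluminescence read after 1 h detection; IC50 from duplicate dose-response fits, means of repeats.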

EP2 = target: T2, EP2 (Homo sapiens, UniProt P43116); test: hEP2 cAMP Assay (SF295 glioblastoma cells, HTRF cAMP, PGE2 75 nM); conditions: antagonistic activity, PGE2 75 nM (EC80)
T2 construct: SF295 glioblastoma cells express high endogenous EP2 and no EP4; host or cells: SF295 glioblastoma cells
T2 sequence (P43116 whole entry): as above
Procedure, shortened: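 IC50 values derive from duplicate-point curves of percent cAMP relative to DMSO, read by HTRF (665/620 nm) against a cAMP calibrator. Compounds (30 μM to 0.01 nM ranges) were given 45 min at room temperature before 30 min with 75 nM PGE2, in EP2-only SF295 cells with 2 mM IBMX.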

EP4 = target: T3, EP4 (Homo sapiens, UniProt P35408); test: hEP4 cAMP Assay (BT549 breast cancer cells, HTRF cAMP, PGE2 6 nM); conditions: antagonistic activity, PGE2 6 nM (EC80)
T3 construct: BT549 breast cancer cells, express high endogenous EP4 levels and very low EP2 levels; host or cells: BT549 breast cancer cells
T3 sequence (P35408 whole entry): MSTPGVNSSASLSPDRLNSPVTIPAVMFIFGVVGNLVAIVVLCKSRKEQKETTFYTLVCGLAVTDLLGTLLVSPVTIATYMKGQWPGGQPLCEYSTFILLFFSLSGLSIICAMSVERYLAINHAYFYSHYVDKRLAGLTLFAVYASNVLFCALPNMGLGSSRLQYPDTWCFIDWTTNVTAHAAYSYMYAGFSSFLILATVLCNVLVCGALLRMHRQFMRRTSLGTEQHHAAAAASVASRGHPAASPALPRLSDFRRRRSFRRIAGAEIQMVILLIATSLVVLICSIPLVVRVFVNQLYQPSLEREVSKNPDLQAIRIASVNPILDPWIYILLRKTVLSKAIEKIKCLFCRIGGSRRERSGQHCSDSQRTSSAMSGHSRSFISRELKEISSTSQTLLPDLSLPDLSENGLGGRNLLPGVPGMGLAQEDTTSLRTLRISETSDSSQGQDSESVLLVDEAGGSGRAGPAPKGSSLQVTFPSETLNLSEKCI
Procedure, shortened: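 BT549 cells (endogenous EP4, very low EP2) in HBSS/20 mM HEPES/0.2% BSA/2 mM IBMX, pre-incubated 45 min RT with compound, then stimulated 30 min RT with PGE2 6 nM (EC80). cAMP read by HTRF competitive immunoassay (665/620 nm), converted via calibrator to % of DMSO control; IC50 from duplicate dose-response curves.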

PTGER4 (EP4) = target: T4, PTGER4 (EP4) (Homo sapiens, UniProt P35408); test: hEP4 b-Arrestin Assay (PathHunter HEK 293 PTGER4 b-arrestin cells, PGE2 20 nM); conditions: antagonistic activity, beta-arrestin assay, HEK 293 PTGER4 cells, PGE2 20 nM (EC80); read-out: hEP4 b-arr IC50
T4 construct: host or cells: HEK 293 (PathHunter, stably transfected)
T4 sequence (P35408 whole entry): as above
Description: The antagonistic activities of the compounds of formula (I) on the EP2 and EP4 receptors are also determined in accordance with the following experimental method.
The assay is using the PathHunter™ HEK 293 PTGER2 and PTGER4 b-arrestin cell lines from DiscoverX. The system is based on the Enzyme Fragment Complementation Technology. Two complementing fragments of the b-galactosidase enzyme are expressed within stably transfected cells. The larger portion of b-gal, termed EA for Enzyme Acceptor, is fused to the C-terminus of b-arrestin 2. The smaller fragment, termed ProLink™ tag, is fused to PTGER2 (EP2) or PTRGER4 (EP4) at the C-terminus. Upon activation, b-arrestin is recruited which forces the interaction of ProLink and EA, allowing complementation of the two fragments of b-gal and the formation of a functional enzyme which is capable of hydrolysing the substrate and generating a chemiluminescent signal.
The HEK 293 PTGER4 b-arrestin cells (DiscoverX 93-030-4C1) are detached from culture dishes with a cell dissociation buffer (Invitrogen, 13151-014), and collected in growing medium (GM: DMEM+Glutamax-I (Invitrogen 32430)/10% FCS, 1% Penicilin/streptomycin). 5000 cells per well of a 384 well plate (white with white bottom Greiner 781080) are seeded in 20 ul per well of GM. Plate is incubated at 37° C., 5% CO2 for 24 hours.
Stock solutions of test compounds are made at a concentration of 10 mM in DMSO, and serially diluted in DMSO to concentrations required for inhibition dose response curves (tested concentration range 10 μM-2 nM or 1 μM-0.2 nM).
PGE2 (Cayman 14010, stock solution: 100 μM in DMSO) is used as agonist at 20 nM final concentration, corresponding to EC80.
Five microliters of diluted compounds are transferred into the assay plate. Plate is pre-incubated 15 minutes at 37° C. Then five microliters of PGE2 (final conc. 20 nM) are transferred into the assay plate. Plate is incubated 120 minutes at 37° C.
PathHunter Glo Detection Kit components are thawed and mix according to manufacturer's instructions: 1 part Galacton Star Substrate with 5 parts Emerald II™ Solution, and 19 parts of PathHunter Cell Assay Buffer, respectively. Twelve μl of reagent are transferred to the assay plate and incubate for 1 hour at room temperature in the dark. Luminescence counts are read on a BMG Fluostar Optima reader according to manufacturer's instructions.
For each compound concentration calculate of the percentage of activity compared to DMSO control value as average ±STDEV. (each concentration is measured in duplicate)
IC50 values and curves are generated with XLfit software (IDBS) using Dose-Response One Site model 203. When compounds were measured multiple times, mean values are given.

Row | IC50 (PTGER2 (EP2)) | IC50 (EP2) | IC50 (EP4) | IC50 (PTGER4 (EP4)) | SMILES
1 | 0.143 µM | 0.176 µM | 0.268 µM | 0.29 µM | CCOc1cc(-c2cc(NCCc3ccc(C)c4ccccc34)ncn2)ccc1C(=O)O [Example 16, 2-Ethoxy-4-{6-[2-(4-methyl-naphthalen-1-yl)-ethylamino]-pyrimidin-4-yl}-benzoic acid]
2 | 0.011 µM | 0.094 µM | 0.055 µM | 0.012 µM | CCOc1cc(-c2cc(NCCc3c(OC)ccc4ccccc34)ncn2)sc1/C=C/C(=O)O [Example 118, (E)-3-(3-Ethoxy-5-{6-[2-(2-methoxy-naphthalen-1-yl)-ethylamino]-pyrimidin-4-yl}-thiophen-2-yl)-acrylic acid]
3 | 0.01 µM | 0.003 µM | 0.25 µM | 0.291 µM | COc1ccc2ccccc2c1CCNc1cc(-c2ccc(C(=O)O)c(OC(F)F)c2)ncn1 [Example 128, 2-Difluoromethoxy-4-{6-[2-(2-methoxy-naphthalen-1-yl)-ethylamino]-pyrimidin-4-yl}-benzoic acid]
4 | 0.025 µM | 0.024 µM | 0.138 µM | 0.225 µM | CCOc1cc(-c2cc(NCCc3c(OC)ccc4nc(C)ccc34)ncn2)sc1C(=O)O [Example 13, 3-Ethoxy-5-{6-[2-(6-methoxy-2-methyl-quinolin-5-yl)-ethylamino]-pyrimidin-4-yl}-thiophene-2-carboxylic acid]
5 | 0.031 µM | 0.052 µM | 0.031 µM | 0.225 µM | CCOc1cc(-c2cc(NCCc3cccc4sccc34)ncn2)sc1C(=O)O [Example 108, 5-[6-(2-Benzo[b]thiophen-4-yl-ethylamino)-pyrimidin-4-yl]-3-ethoxy-thiophene-2-carboxylic acid]
6 | 0.08 µM | 0.202 µM | 0.18 µM | 0.294 µM | CCOc1cc(-c2cc(NCCc3cccc4c(F)cccc34)ncn2)ccc1CC(=O)O [Example 163, (2-Ethoxy-4-{6-[2-(5-fluoro-naphthalen-1-yl)-ethylamino]-pyrimidin-4-yl}-phenyl)-acetic acid]
7 | 0.414 µM | 0.214 µM | 0.228 µM | 0.478 µM | COc1ccc2ccc(F)c(CCNc3cc(-c4cc(C(F)(F)F)c(C(=O)O)s4)ncn3)c2n1 [Example 151, 5-{6-[2-(7-Fluoro-2-methoxy-quinolin-8-yl)-ethylamino]-pyrimidin-4-yl}-3-trifluoromethyl-thiophene-2-carboxylic acid]
8 | 0.004 µM | 0.008 µM | 1.5 µM | 0.934 µM | CCOc1cc(-c2cc(NCCc3c(OCC)ccc4ccccc34)ncn2)ccc1C(=O)O [Example 179, 2-Ethoxy-4-{6-[2-(2-ethoxy-naphthalen-1-yl)-ethylamino]-pyrimidin-4-yl}-benzoic acid]
9 | 0.032 µM | 0.024 µM | 0.029 µM | 0.019 µM | CCOc1cc(-c2cc(NCCc3ccc(Cl)c4ccccc34)ncn2)sc1C(=O)O [Example 62, 5-{6-[2-(4-Chloro-naphthalen-1-yl)-ethylamino]-pyrimidin-4-yl}-3-ethoxy-thiophene-2-carboxylic acid]
10 | 0.013 µM | 0.008 µM | 1.25 µM | 0.034 µM | CCc1nc(-c2cc(NCCc3c(OC)ccc4ccccc34)ncn2)sc1-c1noc(=O)[nH]1 [Example 190, 3-(4-Ethyl-2-{6-[2-(2-methoxy-naphthalen-1-yl)-ethylamino]-pyrimidin-4-yl}-thiazol-5-yl)-[1,2,4]oxadiazol-5(4H)-one]
11 | 0.019 µM | 0.021 µM | 0.007 µM | 0.009 µM | CCOc1cc(-c2cc(NCCc3ccc(C)c4ccccc34)ncn2)sc1C(=O)O [Example 18, 3-Ethoxy-5-{6-[2-(4-methyl-naphthalen-1-yl)-ethylamino]-pyrimidin-4-yl}-thiophene-2-carboxylic acid]
12 | 0.011 µM | 0.009 µM | 0.014 µM | 0.056 µM | CCOc1cc(-c2cc(NCCc3cccc4ccccc34)ncn2)sc1C(=O)O [Example 9, 3-Ethoxy-5-[6-(2-naphthalen-1-yl-ethylamino)-pyrimidin-4-yl]-thiophene-2-carboxylic acid]
13 | 0.027 µM | 0.048 µM | 0.33 µM | 0.375 µM | CCOc1cc(-c2cc(NCCc3cccc4c(C)cccc34)ncn2)ccc1C(=O)O [Example 184, 2-Ethoxy-4-{6-[2-(5-methyl-naphthalen-1-yl)-ethylamino]-pyrimidin-4-yl}-benzoic acid]
14 | 0.002 µM | 0.002 µM | 0.015 µM | 0.02 µM | CCOc1cc(-c2cc(NCCc3c(OC)ccc4ccccc34)ncn2)sc1C(=O)O [Example 4, 3-Ethoxy-5-{6-[2-(2-methoxy-naphthalen-1-yl)-ethylamino]-pyrimidin-4-yl}-thiophene-2-carboxylic acid]
15 | 0.027 µM | 0.017 µM | 0.017 µM | 0.052 µM | CCOc1cc(-c2cc(NCCc3c(C)c(C)cc4ccccc34)ncn2)sc1C(=O)O [Example 12, 5-{6-[2-(2,3-Dimethyl-naphthalen-1-yl)-ethylamino]-pyrimidin-4-yl}-3-ethoxy-thiophene-2-carboxylic acid]
16 | 0.126 µM | 0.286 µM | 0.003 µM | 0.003 µM | CCOc1cc(-c2cc(NCCc3c(C#N)ccc4c(OC)ccc(F)c34)ncn2)sc1C(=O)O [Example 158, 5-{6-[2-(2-Cyano-8-fluoro-5-methoxy-naphthalen-1-yl)-ethylamino]-pyrimidin-4-yl}-3-ethoxy-thiophene-2-carboxylic acid]
17 | 0.01 µM | 0.015 µM | 0.14 µM | 0.175 µM | CSc1cc(-c2cc(NCCc3cccc4c(C)cccc34)ncn2)ccc1C(=O)O [Example 173, 4-{6-[2-(5-Methyl-naphthalen-1-yl)-ethylamino]-pyrimidin-4-yl}-2-methylsulfanyl-benzoic acid]
18 | 0.012 µM | 0.005 µM | 0.053 µM | 0.308 µM | CCCc1cc(-c2cc(NCCc3c(OC)ccc4ccccc34)ncn2)ccc1C(=O)O [Example 121, 4-{6-[2-(2-Methoxy-naphthalen-1-yl)-ethylamino]-pyrimidin-4-yl}-2-propyl-benzoic acid]
19 | 0.016 µM | 0.037 µM | 0.037 µM | 0.037 µM | CCOc1cc(-c2cc(NCCc3cccc4[nH]ccc34)ncn2)sc1-c1noc(=O)[nH]1 [Example 137, 3-(3-Ethoxy-5-{6-[2-(1H-indol-4-yl)-ethylamino]-pyrimidin-4-yl}-thiophen-2-yl)-[1,2,4]oxadiazol-5(4H)-one]

Row | SMILES | IC50 (PTGER2 (EP2)) | IC50 (EP2) | IC50 (EP4) | IC50 (PTGER4 (EP4))
20 | CCCCOc1cc(-c2cc(NCCc3c(OC)ccc4ccccc34)ncn2)ccc1C(=O)O [Example 119, 2-Butoxy-4-{6-[2-(2-methoxy-naphthalen-1-yl)-ethylamino]-pyrimidin-4-yl}-benzoic acid] | 0.018 µM | 0.012 µM | 0.2 µM | 0.222 µM
